According to patent US12077503B2, “Substituted cyclic amides and their use as herbicides” (FMC CORPORATION, priority 2015, dated 2024):
Like-named read-outs stand apart in the source and are kept apart here.

Tests used:
Assay type in all cases: in vivo
[1] = test system: ducksalad (Heteranthera limosa); test: Test B flooded paddy test; details: Heteranthera limosa, Flood, 250 g ai/ha; scale of 0 to 100 where 0 is no effect and 100 is complete control; read-out: Ducksalad plant response rating
Procedure, shortened: (§1)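 Rating scale 0–100 (visual, vs untreated controls) after a 13–15 d greenhouse period; application to the flood layer, 3 cm above soil and maintained; plants at 2-leaf stage when treated.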

[2] = test system: sedge, umbrella (small-flower umbrella sedge, Cyperus difformis); test: Test B flooded paddy test; details: Cyperus difformis, Flood, 250 g ai/ha; scale of 0 to 100 where 0 is no effect and 100 is complete control; read-out: Sedge, Umbrella plant response rating
Procedure, shortened: as §1

[3] = test system: barnyardgrass (Echinochloa crus-galli); test: Test B flooded paddy test; details: Echinochloa crus-galli, Flood, 250 g ai/ha; scale of 0 to 100 where 0 is no effect and 100 is complete control; read-out: Barnyardgrass plant response rating
Procedure, shortened: as §1

rice (Oryra sativa) = test: Test B flooded paddy test; details: Oryza sativa, Flood, 250 g ai/ha; scale of 0 to 100 where 0 is no effect and 100 is complete control; read-out: Rice plant response rating
Procedure, shortened: as §1

[4] = test system: giant foxtail (Setaria faberii); test: Test A preemergence; details: Setaria faberi, pre-emergence, 240 h; for pest or weed control at 125 g/ha: 125 g ai/ha, 0 to 100 scale where 0 is no effect and 100 is complete control; for pest or weed control at 500 g/ha: 500 g ai/ha
Procedure, shortened: (§2)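 Each rating is a visual injury score from 0 to 100 given about 10 d after treatment, judged against untreated controls kept alongside in the greenhouse. In loam soil–sand blend, seeds got a preemergence directed soil spray, while postemergence plants were 2 to 10 cm tall at spraying.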

[5] = test system: ragweed (common ragweed, Ambrosia elatior); test: Test A preemergence; details: Ambrosia artemisiifolia, pre-emergence, 240 h; for pest or weed control at 125 g/ha: 125 g ai/ha, 0 to 100 scale where 0 is no effect and 100 is complete control; for pest or weed control at 500 g/ha: 500 g ai/ha
Procedure, shortened: as §2

[6] = test system: barnyardgrass (Echinochloa crus-galli); test: Test A preemergence; details: Echinochloa crus-galli, pre-emergence, 240 h; for pest or weed control at 125 g/ha: 125 g ai/ha, 0 to 100 scale where 0 is no effect and 100 is complete control; for pest or weed control at 500 g/ha: 500 g ai/ha
Procedure, shortened: as §2

[7] = test system: ryegrass, Italian (Italian ryegrass, Lolium multiflorum); test: Test A preemergence; details: Lolium multiflorum, pre-emergence, 240 h; for pest or weed control at 125 g/ha: 125 g ai/ha, 0 to 100 scale where 0 is no effect and 100 is complete control; for pest or weed control at 500 g/ha: 500 g ai/ha
Procedure, shortened: as §2

[8] = test system: pigweed (Amaranthus retroflexus); test: Test A preemergence; details: Amaranthus retroflexus, pre-emergence, 240 h; for pest or weed control at 125 g/ha: 125 g ai/ha, 0 to 100 scale where 0 is no effect and 100 is complete control; for pest or weed control at 500 g/ha: 500 g ai/ha
Kochia (Kochia scoparia) [9] = test: Test A preemergence; details: Bassia scoparia, pre-emergence, 240 h; for pest or weed control at 125 g/ha: 125 g ai/ha, 0 to 100 scale where 0 is no effect and 100 is complete control; for pest or weed control at 500 g/ha: 500 g ai/ha
Procedure, shortened: as §2

[10] = test system: Galium (catchweed bedstraw, Galium aparine); test: Test A postemergence; details: Galium, post-emergence, 240 h, 125 g ai/ha, Postemergence; visual injury after approximately 10 d; 0 to 100 scale where 0 is no effect and 100 is complete control; read-out: Plant response rating, Galium
Procedure, shortened: as §2

[11] = test system: wheat (Triticum aestivum); test: Test A postemergence; details: Triticum aestivum, post-emergence, 240 h, 125 g ai/ha, Postemergence; visual injury after approximately 10 d; 0 to 100 scale where 0 is no effect and 100 is complete control; read-out: Plant response rating, Wheat
Procedure, shortened: as §2

[12] = test system: ragweed (common ragweed, Ambrosia elatior); test: Test A postemergence; details: Ambrosia artemisiifolia, post-emergence, 240 h, 125 g ai/ha, Postemergence; visual injury after approximately 10 d; 0 to 100 scale where 0 is no effect and 100 is complete control; read-out: Plant response rating, Ragweed
Procedure, shortened: as §2

[13] = test system: ryegrass, Italian (Italian ryegrass, Lolium multiflorum); test: Test A postemergence; details: Lolium multiflorum, post-emergence, 240 h, 125 g ai/ha, Postemergence; visual injury after approximately 10 d; 0 to 100 scale where 0 is no effect and 100 is complete control; read-out: Plant response rating, Ryegrass, Italian
Procedure, shortened: as §2

Kochia (Kochia scoparia) [14] = test: Test A postemergence; details: Bassia scoparia, post-emergence, 240 h, 125 g ai/ha, Postemergence; visual injury after approximately 10 d; 0 to 100 scale where 0 is no effect and 100 is complete control; read-out: Plant response rating, Kochia
Procedure, shortened: as §2

[15] = preemergence, read-out: Foxtail, Giant plant response rating
[16] = Preemergence, visual injury vs untreated controls after approximately 10 d, read-out: Foxtail, Giant plant response rating (0 to 100 scale where 0 is no effect and 100 is complete control)
[17] = preemergence, read-out: Ragweed plant response rating
[18] = Preemergence, visual injury vs untreated controls after approximately 10 d, read-out: Ragweed plant response rating (0 to 100 scale where 0 is no effect and 100 is complete control)
[19] = preemergence, read-out: Barnyardgrass plant response rating
[20] = Preemergence, visual injury vs untreated controls after approximately 10 d, read-out: Barnyardgrass plant response rating (0 to 100 scale where 0 is no effect and 100 is complete control)
[21] = preemergence, read-out: Ryegrass, Italian plant response rating
[22] = Preemergence, visual injury vs untreated controls after approximately 10 d, read-out: Ryegrass, Italian plant response rating (0 to 100 scale where 0 is no effect and 100 is complete control)
[23] = preemergence, read-out: Pigweed plant response rating
[24] = Preemergence, visual injury vs untreated controls after approximately 10 d, read-out: Pigweed plant response rating (0 to 100 scale where 0 is no effect and 100 is complete control)
[25] = preemergence, read-out: Kochia plant response rating
[26] = Preemergence, visual injury vs untreated controls after approximately 10 d, read-out: Kochia plant response rating (0 to 100 scale where 0 is no effect and 100 is complete control)
[27] = preemergence, visual injury rating about 10 d after treatment, 0 to 100 scale (0 no effect, 100 complete control), read-out: Foxtail, Giant plant response rating
[28] = preemergence, visual injury rating about 10 d after treatment, 0 to 100 scale (0 no effect, 100 complete control), read-out: Ragweed plant response rating
[29] = preemergence, visual injury rating about 10 d after treatment, 0 to 100 scale (0 no effect, 100 complete control), read-out: Barnyardgrass plant response rating
[30] = preemergence, visual injury rating about 10 d after treatment, 0 to 100 scale (0 no effect, 100 complete control), read-out: Ryegrass, Italian plant response rating
[31] = preemergence, visual injury rating about 10 d after treatment, 0 to 100 scale (0 no effect, 100 complete control), read-out: Pigweed plant response rating
[32] = preemergence, visual injury rating about 10 d after treatment, 0 to 100 scale (0 no effect, 100 complete control), read-out: Kochia plant response rating

| SMILES | pest or weed control at 250 g/ha [1] [%] | pest or weed control at 250 g/ha [2] [%] | pest or weed control at 250 g/ha [3] [%] | pest or weed control at 250 g/ha (rice (Oryra sativa)) [%] | pest or weed control at 125 g/ha [4, 15] [%] | pest or weed control at 500 g/ha [4, 16] [%] | pest or weed control at 125 g/ha [5, 17] [%] | pest or weed control at 500 g/ha [5, 18] [%] | pest or weed control at 125 g/ha [6, 19] [%] | pest or weed control at 500 g/ha [6, 20] [%] | pest or weed control at 125 g/ha [7, 21] [%] | pest or weed control at 500 g/ha [7, 22] [%] | pest or weed control at 125 g/ha [8, 23] [%] | pest or weed control at 500 g/ha [8, 24] [%] | pest or weed control at 125 g/ha (Kochia (Kochia scoparia) [9]; [25]) [%] | pest or weed control at 125 g/ha [10] [%] | plant injury at 125 g/ha [11] [%] | pest or weed control at 125 g/ha [12] [%] | pest or weed control at 125 g/ha [13] [%] | pest or weed control at 125 g/ha (Kochia (Kochia scoparia) [14]) [%] | also measured |
| --- | --- | --- | --- | --- | --- | --- | --- | --- | --- | --- | --- | --- | --- | --- | --- | --- | --- | --- | --- | --- | --- |
| CN1CC[C@H](c2ccc(F)cc2)[C@@H](C(=O)Nc2ccccc2F)C1=O [Compound 917] | 40 | 0 | 0 | 0 | 30 | 90 | 0 | 0 | 20 | 80 | 0 | 0 | 0 | 0 | 0 | 0 | 0 | 0 | 0 | 0 | pest or weed control at 500 g/ha (Kochia (Kochia scoparia) [9]; [26]): 0% |
| COc1ccc(CN2CC[C@H](c3ccc(F)cc3)[C@@H](C(=O)Nc3cccc(F)c3F)C2=O)cc1 [Compound 919] | 0 | 0 | 0 | 0 | 0 | 0 | 0 | 0 | 0 | 0 | 0 | 0 | 0 | 0 | 0 | 0 | 0 | 0 | 0 | 0 | pest or weed control at 500 g/ha (Kochia (Kochia scoparia) [9]; [26]): 0% |
| O=C(Nc1cccc(F)c1F)[C@H]1C(=O)N(C2CC2)CC[C@@H]1c1cccc(C(F)(F)F)c1 [Compound 925] | 0 | 0 | 0 | 0 | 80 | 90 | 0 | 0 | 30 | 90 | 30 | 30 | 0 | 0 | 0 | 0 | 0 | 0 | 0 | 0 | pest or weed control at 500 g/ha (Kochia (Kochia scoparia) [9]; [26]): 0% |
| Cc1cc([C@H]2CN(C)C(=O)[C@@H]2C(=O)Nc2cccc(F)c2F)ccc1Cl [Compound 929] | 60 | 0 | 40 | 0 | 90 | – | – | – | 90 | – | – | – | 20 | – | 70 | 50 | 30 | 20 | 50 | 40 | pest or weed control at 500 g/ha [4, 27]: 90%; pest or weed control at 500 g/ha [5, 28]: 30%; pest or weed control at 500 g/ha [6, 29]: 90%; pest or weed control at 500 g/ha [7, 30]: 80%; pest or weed control at 500 g/ha [8, 31]: 50%; pest or weed control at 500 g/ha (Kochia (Kochia scoparia) [9]; [32]): 90% |
| Cc1cc([C@H]2CN(C)C(=O)[C@@H]2C(=O)Nc2ccc(F)c(F)c2F)ccc1Cl [Compound 931] | 60 | 0 | 65 | 0 | 90 | – | – | – | 90 | – | – | – | 30 | – | 90 | 40 | 30 | 0 | 30 | 30 | pest or weed control at 500 g/ha [4, 27]: 90%; pest or weed control at 500 g/ha [5, 28]: 30%; pest or weed control at 500 g/ha [6, 29]: 90%; pest or weed control at 500 g/ha [7, 30]: 70%; pest or weed control at 500 g/ha [8, 31]: 40%; pest or weed control at 500 g/ha (Kochia (Kochia scoparia) [9]; [32]): 90% |
| Cc1cc([C@H]2CN(C)C(=O)[C@@H]2C(=O)Nc2ccccc2C(F)(F)F)ccc1Cl [Compound 932] | 30 | 0 | 0 | 0 | 90 | – | – | – | 90 | – | – | – | 0 | – | 40 | 40 | 30 | 0 | 30 | 30 | pest or weed control at 500 g/ha [4, 27]: 100%; pest or weed control at 500 g/ha [5, 28]: 30%; pest or weed control at 500 g/ha [6, 29]: 90%; pest or weed control at 500 g/ha [7, 30]: 60%; pest or weed control at 500 g/ha [8, 31]: 30%; pest or weed control at 500 g/ha (Kochia (Kochia scoparia) [9]; [32]): 70% |
